In PubChem BioAssay (NCI):
Where “and” joins values, the source holds several entries; their conditions need not be identical. Identical values can stand only once.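 All cell lines were grown in 96-well plates and treated with compound for 48 hours. At the GI50, growth is halved. TGI denotes the concentration required for complete inhibition of growth.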

Key:
Experiment in all cases: growth of human tumour cells (NCI), 48 h
[1] = tested on: SK-OV-3 ovarian
[2] = tested on: EKVX NSCLC
[3] = tested on: SK-MEL-28 melanoma
[4] = tested on: HT29 colon
[5] = tested on: OVCAR-8 ovarian
[6] = tested on: U251 CNS
[7] = tested on: SNB-19 CNS
[8] = tested on: MDA-MB-231 breast
[9] = tested on: DU-145 prostate
[10] = tested on: HCC-2998 colon

Row | Structure (SMILES) | TGI [1] | TGI [2] | TGI [3] | TGI [4] | TGI [5] | TGI [6] | TGI [7] | GI50 [1] | GI50 [8] | TGI [8] | GI50 [9] | TGI [9] | GI50 [2] | GI50 [3] | GI50 [4] | GI50 [5] | GI50 [6] | GI50 [7] | TGI [10] | GI50 [10]
1 | CCCCC(C)/C=C/C(=O)C1=C(O)/C(=C/C(=O)O)OC1=O (centres undefined) | > 100 µM | > 100 µM | > 100 µM | > 100 µM | > 100 µM | > 100 µM | > 100 µM | – | – | – | – | – | – | – | – | – | – | – | – | –
2 | CCN(CC)c1c(-c2ccccc2)n[nH]c1C(=O)OC | 50.5 µM | 56.8 µM | > 100 µM | 33.5 µM | 44.9 µM | 66.4 µM | > 100 µM | 17.4 µM | 35.8 µM | 60.4 µM | 36.9 µM | > 100 µM | 21.2 µM | 22200 nM | 19.4 µM | 15.5 µM | 25.2 µM | 46.4 µM | – | –
3 | Nc1ccc(-c2cc(C(=O)Nc3nccs3)[nH]c(=S)n2)cc1 | > 100 µM | > 100 µM | > 100 µM | > 100 µM | > 100 µM | > 100 µM | > 100 µM | – | – | – | – | – | – | – | – | – | – | – | – | –
4 | O=C1C(=C2CCCC2)CCC1CN1CCCCC1 (centres undefined) | – | 35.4 µM | 31.3 µM | 42.1 µM | 43.4 µM | > 100 µM | > 100 µM | – | – | – | – | – | – | – | – | – | – | – | 29.8 µM | –
5 | CCC/C=C\C=C\C1(NS(=O)(=O)c2ccc(C)cc2)CCC(C(C)(C)C)CC1 (centres undefined) | 65.2 µM | 62.6 µM | – | 30.2 µM | – | 25.9 µM | > 100 µM | – | – | – | – | – | – | – | – | – | – | – | 34.3 µM | –
6 | C[C@H]1C/C=C/[C@H]2[C@@H]3O[C@]3(C)[C@@H](C)[C@H]3[C@H](Cc4ccccc4)NC(=O)[C@]32OC(=O)O/C=C/[C@@](C)(O)C1=O | – | – | – | 99.2 µM and 125 µM and > 250 µM | 89.7 µM and 125 µM and > 250 µM | 1.14 µM and 4.02 µM and 0.424 µM | – | 0.025 µM | – | 3.36 µM | – | – | 0.065 µM and 0.121 µM | 20.4 nM and 47 nM | 0.0465 µM and 0.025 µM | 15 µM | 0.025 µM | 0.0174 µM | – | 155 nM and 342 nM
7 | Cc1ccc(S(=O)(=O)NC(=O)NCCc2ccccc2)cc1 | > 100 µM | > 100 µM | > 100 µM | – | > 100 µM | > 100 µM | > 100 µM | – | – | – | – | – | – | – | – | – | – | – | > 100 µM | –
8 | NCCCOc1cc2ccccc2cc1C(=O)Nc1ccc(Cl)cc1OC(=O)c1cc2ccccc2cc1OCCCN | 3.19 µM | – | 0.949 µM | – | – | – | 2.19 µM | 1.57 µM | 0.596 µM | 1.99 µM | 0.303 µM | 0.781 µM | – | 382 nM | 0.266 µM | – | – | 0.766 µM | 2.82 µM | 1430 nM
9 | CCOC(=O)C(=O)Nc1cc(Cl)c(Cl)cc1Cl | > 100 µM | > 100 µM | > 100 µM | > 100 µM | > 100 µM | > 100 µM | > 100 µM | – | – | – | – | – | – | – | – | – | – | – | > 100 µM | –
10 | O=[P+](O)c1ccccn1 | > 100 µM | > 100 µM | > 100 µM | > 100 µM | > 100 µM | > 100 µM | > 100 µM | – | – | – | – | – | – | – | – | – | – | – | > 100 µM | –
11 | O=C(Nc1cccc(-n2cc(-c3ccncc3)c(-c3ccc(O)c(Cl)c3)n2)c1)c1ccc2c(c1)OCCO2 | > 100 µM | – | – | > 100 µM | > 100 µM | > 100 µM | > 100 µM | > 100 µM | 2.92 µM | > 100 µM | > 100 µM | > 100 µM | – | – | 7.03 µM | 3.67 µM | 4.02 µM | > 100 µM | > 100 µM | > 100000 nM
12 | S=c1o[nH]c(-c2ccccc2)c1C=Nc1ccccc1 | > 100 µM | > 100 µM | > 100 µM | > 100 µM | > 100 µM | > 100 µM | > 100 µM | – | – | – | – | – | – | – | – | – | – | – | > 100 µM | –
13 | Cc1ccccc1NC(=O)/C=N/O | > 100 µM | 39.6 µM | > 100 µM | > 100 µM | > 100 µM | > 100 µM | > 100 µM | – | – | – | – | – | – | – | – | – | – | – | > 100 µM | –
14 | Nc1nonc1-c1nc2ccccc2n1Cc1ccc(F)cc1 | > 100 µM | – | > 100 µM | > 100 µM | > 100 µM | > 100 µM | > 100 µM | 16.8 µM | 6.84 µM | > 100 µM | > 100 µM | > 100 µM | – | 7890 nM | 3.55 µM | > 100 µM | 7.48 µM | 14.6 µM | – | –
15 | CN(C)CCC(/C=C/c1ccccc1)=N\Nc1ccc(Cl)c(Cl)c1 | 15.5 µM | 13.1 µM | 22.6 µM | 5.01 µM | 7.8 µM | 13.6 µM | 20.2 µM | – | – | – | – | – | – | – | – | – | – | – | – | –
16 | COC(=O)CCC(=O)N1C/C(=C\c2ccccc2)C(=O)/C(=C/c2ccccc2)C1 | 13.9 µM | 14.3 µM | 4.24 µM | 4.09 µM | 14.6 µM | 2.6 µM | 14.5 µM | – | – | – | – | – | – | – | – | – | – | – | 3.06 µM | –
17 | Nc1ncnc2c1ncn2C1OC(COS(N)(=O)=O)C(O)C1O (centres undefined) | 0.00784 µM and 0.0758 µM | – | 0.00521 µM and 0.0509 µM | – | 0.00394 µM | – | – | – | < 0.001 µM | – | < 0.001 µM | – | – | 2.25 nM and 22.1 nM | – | < 0.001 µM | – | < 0.001 µM | – | –
18 | Cc1coc2c1C(=O)C(=O)c1ccccc1-2 | 3.25 µM | – | 3.09 µM | 3.53 µM | 1.25 µM | 2.97 µM | – | – | – | – | – | – | – | – | – | – | – | – | 3.35 µM | –
19 | COc1cc(-n2cc(-c3ccccc3)[nH]c2=O)cc(OC)c1OC | > 100 µM | > 100 µM | > 100 µM | > 100 µM | – | > 100 µM | > 100 µM | 34.3 µM | 37.2 µM | > 100 µM | – | – | 25.4 µM | 31400 nM | > 100 µM | – | 41.3 µM | 30.9 µM | > 100 µM | > 100000 nM
20 | CCCCCCCCOCC(O)CO (centres undefined) | > 100 µM | > 100 µM | > 100 µM | > 100 µM | > 100 µM | > 100 µM | > 100 µM | – | – | – | – | – | – | – | – | – | – | – | > 100 µM | –
21 | CC(C)(C)OP(=O)(OC(C)(C)C)C(O)c1ccc(/C=C(\C#N)C(N)=O)cc1 (centres undefined) | > 100 µM | > 100 µM | > 100 µM | > 100 µM | > 100 µM | > 100 µM | > 100 µM | – | – | – | – | – | – | – | – | – | – | – | > 100 µM | –
22 | C/C(=N\NC(N)=S)c1ccc(C)c(C)c1 | > 100 µM | > 100 µM | > 100 µM | 98.9 µM | > 100 µM | > 100 µM | – | – | – | – | – | – | – | – | – | – | – | – | > 100 µM | –
